Data from patent publication US20140018384A1, “QUINOLINONE DERIVATIVES FOR USE IN THE TREATMENT OF AN AUTOIMMUNE DISEASE AND/OR AN INFLAMMATORY DISEASE” (PRONOXIS AB, priority 2011, published 2014).

Legend:
Rat granulocytes = test: ROS production in thioglycollate-recruited rat granulocytes, isoluminol chemiluminescence assay; assay type: cell-based; conditions: 25 μM compound, compared to DMSO control cells; FIGS. 2A and B
Description: (§1) FIG. 2: ROS production and effect on T cell arthritogeniciy of ROS inducing substances. A-B). Thioglycolate recruited rat granulocytes (in accordance with the procedure in Biological Example 3) were treated with 25 μM substance and measurement of ROS production was initiated immediately using an isoluminol based chemiluminescence assay (FIGS. 2A and 2B). […] C-D) Arthritogenic rat splenocytes were treated with 12.5 μM substance during 44 hours ex vivo incubation in presence of ConA (FIGS. 2C and 2D). Following incubation, cells were washed and injected i.p. into naive recipient rats (n=8-11). Disease severity in recipient rats was followed by investigation of macroscopic swelling and redness of the rat joints. Treatment with substance during ex vivo stimulation prevented transfer of arthritogenic T cells.
Rat granulocytes were recruited to the peritoneum by an i.p. injection of 2.4% thioglycollate medium (autoclaved). The peritoneal cavity was washed after 24 hours with ice cold HBSS. Collected cells were, after lysis of red blood cells, washed and resupended in HBSS. In a total volume of 100 μl, compound (25 μM), isoluminol (0.175 mg/ml) and horseradish peroxidase (fraction II) (1.75 U/ml) was added to the cells (0.1*10̂6/well) and resulting ROS production detected as a luminescence signal (fluorescent unit, FU) over time. […] All samples were analysed at least in duplicates.

arthritogenic T cells = test: Adoptive transfer of ex vivo treated arthritogenic T cells (splenocytes) to naive recipient DA rats; assay type: in vivo, rat
Description: Arthritogenic cells were treated with H2O2 (176-1.76 μM) for 20 min and A) granulocytes and B) T cells (see FIGS. 1A and 1B) were investigated for intracellular ROS using a DHR-123 based flow cytometric assay. […] Arthritogenic cells were cultured in presence of Con A and w/wo H2O2 (176-1.76 μM) for 44 hours and then transferred to naïve recipient rats (n=7-9).
as §1
In order to investigate the effect of ROS on T cell arthritogenicity, spleens were collected from arthritis susceptible DA rats injected with the arthritis inducing oil pristane (0.5 ml per rat s.c.) day −13. Single cell suspensions were prepared from the spleens and red blood cells were lysed. After wash, cells were resuspended in cell culture medium containing concanavalin A (ConA) to a final concentration of 4.5×10̂6 cells/ml. […] The cells were incubated for 44 hours at 37° C. After incubation the cells were washed and resuspended in PBS to a final concentration of 60*10̂6 cells/ml. Cells were injected i.p. (1 ml/rat) into naïve recipient DA rats and disease was followed by macroscopic evaluation of disease.
In order to investigate the effect of ROS inducing substances on T cell arthritogenicity, spleens were collected from arthritis susceptible DA rats injected with the arthritis inducing oil pristane (0.5 ml per rat s.c.) day −13. Single cell suspensions were prepared from the spleens and red blood cells were lysed.
After wash, cells were resuspended in cell culture medium containing concanavalin A (ConA) to a final concentration of 4.5×10̂6 cells/ml. Substance A or B was added to the cells to a final concentration of 12.5 μM. The cells were incubated for 44 hours at 37° C. Control cells were incubated in presence of vehicle control (DMSO). After incubation the cells were washed and resuspended in PBS to a final concentration of C) 30*10̂6 and D) 60*10̂6 cells/ml. Cells were injected i.p. (1 ml/rat) into naïve recipient DA rats and disease was followed by macroscopic evaluation of disease (n=8-11).

PLB-985 cells = test: ROS production (isoluminol/HRP luminescence) in PLB-985 cells, Biological Example 1; assay type: cell-based; conditions: 25 μM compound vs. DMSO, setup C, read-out: Activity C (fold increase of NADPH activity compared to control)
Method in brief: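 Cells in HBSS received compound plus isoluminol and HRP; luminescence followed 10–30 min, AUC divided by control to give fold change in NADPH oxidase activity. HL-60: 50 μM compound vs blank; PLB-985: 25 μM compound vs blank or vs DMSO.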

granulocytes and T cells = conditions: H2O2 176-1.76 μM for 20 min
Description: In order to measure the effect of exogenous ROS on intracellular ROS content, single cell suspensions were prepared from rat spleens. After lysis of red blood cells (0.84% ammonium chloride) the cells were stained with antibody His-48-bio (anti-granulocyte) or R73-bio (anti-T cell receptor) followed by staining with streptavidine-APC. Cells were then resuspended in DMEM containing DHR-123 and incubated for 10 minutes at 37° C. […] After 20 minutes incubation, cells were washed, resuspended in PBS and acquired in a FACScalibur. […] Samples were analysed in triplicates.

SMILES	cellular ROS production (luminescence signal over time) (Rat granulocytes)	T cells capacity to transfer arthritis to naive recipients (arthritogenic T cells; 12.5 μM substance, 44 hours ex vivo with ConA, cells injected i.p. into DA rats, FIGS. 2C and D)	fold induction at 25 µM (PLB-985 cells)	mean arthritis severity in recipient rats (arthritogenic T cells; cells cultured 44 hours with Con A at lower concentrations of H2O2 (below 88 μM))	mean arthritis severity in recipient rats (arthritogenic T cells; cells cultured 44 hours with Con A in presence of 176 μM and 88 μM H2O2)	intracellular ROS (granulocytes and T cells)
COc1ccc(NC(=O)Cn2cc(C(=O)c3ccccc3)c(=O)c3cc4c(cc32)OCO4)c(OC)c1 [Example 84, 2-(3-Benzoyl-6,7-methylenedioxy-4-oxo-1-quinolinyl)-N-(2,4-dimethoxyphenyl)acetamide]	clear induction of cellular ROS production	significantly alters the T cells capacity to transfer arthritis to naïve recipients	8.4	–	–	–
OO [Example H2O2, Hydrogen peroxide, reference compound]	–	–	–	the effect is lost	significant reduction	Intracellular ROS reflected amount of H2O2 added
